# Assay: Drug-release test of drug-carrying contact lenses
# Assay type: physicochemical
# Source text: The drug-release tests are respectively performed on the first encapsulation-type drug-carrying contact lens and the drug-soaking type contact lens of the present invention to understand the drug-release thereof.
# In one embodiment, the encapsulation-type drug-carrying contact lens adopts a hydrophobic antibiotic—Azithromycin, which is an oral azalide group antibiotic that is a subgroup of macrolides, and which is a broad-spectrum antibiotic effective to Gram-positive bacteria, Gram-negative bacteria, anaerobic bacteria, Chlamydia, helicoids, etc. […] Such a phenomenon may be attributed to the fact: the higher the temperature, the higher the oscillation frequency of the drug molecules, and the greater the quantity of the drug molecules diffusing out. In the present invention, the drug-release amount can be quantitively controlled according to the application environment. Therefore, the present invention has a potential to realize a customized drug-carrying contact lens.
# In one embodiment, the drug-soaking type drug-carrying contact lens adopts Vitamin B12, which is a hydrophilic drug and effective to pernicious anaemia, and which is a red crystalline powder likely to absorb humidity, easy to dissolve in water and alcohol, and slightly unstable in the environment of light, strong acid, and base. […] Such a phenomenon is attributed to the fact that the greater the concentration difference, the higher the driving force of drug molecule diffusion.
Molecule,"release of Vitamin B12 versus drug-carrying contact lens free of drug carriers (drug-soaking type drug-carrying contact lens containing the drug carriers, FIG. 7(a))","drug-release rate with respect to drug concentration (drug-soaking type drug-carrying contact lens, different concentrations of Vitamin B12, FIG. 7(b))","release quantity of Azithromycin with respect to temperature (encapsulation-type drug-carrying contact lens, FIG. 6)"
Vitamin B12,more slowly,increases with the concentration of the drug molecules,
CC[C@H]1OC(=O)[C@H](C)[C@@H](O[C@H]2C[C@@](C)(OC)[C@@H](O)[C@H](C)O2)[C@H](C)[C@@H](O[C@@H]2O[C@H](C)C[C@H](N(C)C)[C@H]2O)[C@](C)(O)C[C@@H](C)CN(C)[C@H](C)[C@@H](O)[C@]1(C)O [Azithromycin],,,increases with the temperature

# Reference: US8623400B2, “Drug-carrying contact lens and method for fabricating the same” (National Chiao Tung University, priority 2011, dated 2014)
